Assay results as given in BindingDB's records for patent US10202390 (Bristol-Myers Squibb Co., 2019).

Target: T1, Interleukin-1 receptor-associated kinase 4 (Homo sapiens, UniProt Q9NWZ3)
T1 sequence (Q9NWZ3 whole entry): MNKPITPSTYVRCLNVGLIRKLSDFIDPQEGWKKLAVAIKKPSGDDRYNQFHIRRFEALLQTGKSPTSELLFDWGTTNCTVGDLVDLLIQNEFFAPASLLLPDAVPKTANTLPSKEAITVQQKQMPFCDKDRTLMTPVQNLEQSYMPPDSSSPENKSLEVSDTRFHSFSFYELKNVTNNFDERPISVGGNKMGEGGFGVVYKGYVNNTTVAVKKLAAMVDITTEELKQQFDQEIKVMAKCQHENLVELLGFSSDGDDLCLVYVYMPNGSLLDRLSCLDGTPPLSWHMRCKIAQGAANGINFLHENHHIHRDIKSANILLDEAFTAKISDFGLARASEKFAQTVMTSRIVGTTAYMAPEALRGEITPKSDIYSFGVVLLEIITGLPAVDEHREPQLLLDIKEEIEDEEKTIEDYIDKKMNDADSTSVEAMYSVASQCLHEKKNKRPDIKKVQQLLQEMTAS
Test: Not found
From the text: Not found

Compound	IC50 [µM]
CC(C)(O)CCc1cn(-c2cnc(-c3cnn4cc(C#N)cnc34)cc2NC2COC2)nn1 [US10202390, Example 26]	0.01
CC(C)Nc1cc(-c2cnc3cc(Cl)cnn23)ncc1-c1cnn(C2CCOCC2)c1 [US10202390, Example 2]	0.063
